Test results published in PubChem BioAssay AID330 (DTP/NCI, 2004).
Several values for one entry are separate records, joined by “and”; a condition that tells them apart may be missing. Identical values can stand only once. Inconclusive results and toxic doses are left out.

Test system: P388 leukemia ip, CD2F1 mice, survival T/C
Test: NCI In Vivo Anticancer Drug Screen. Data for tumor model P388 Leukemia (intraperitoneal) in CD2F1 (CDF1) mice
Settings: endpoint: median survival time, higher = longer survival
In short: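 Mice carrying the transplanted tumor received test compound or vehicle. Survival was recorded in each group, and the value is the treated-group measurement divided by that of the vehicle-treated control group.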

[1] = dose: 60.0 mg/kg/injection, schedule: Q01DX005 (ip), vehicle: saline with Tween-80
[2] = dose: 120.0 mg/kg/injection, schedule: Q01DX005 (ip), vehicle: saline with Tween-80

SMILES: O=[N+]([O-])c1cc(C(Nc2nncs2)Nc2nncs2)ccc1Cl
- T/C (dose: 30.0 mg/kg/injection, schedule: Q01DX005 (ip), vehicle: saline with Tween-80): 91 % of control
- T/C [1]: 109 % of control and 87 % of control
- T/C (dose: 240.0 mg/kg/injection, schedule: Q01DX005 (ip), vehicle: saline with Tween-80): 150 % of control

SMILES: Cc1cccc(=O)n1C
- T/C (dose: 50.0 mg/kg/injection, schedule: Q01DX009 (ip), vehicle: saline): 102 % of control
- T/C (dose: 100.0 mg/kg/injection, schedule: Q01DX009 (ip), vehicle: saline): 102 % of control
- T/C (dose: 200.0 mg/kg/injection, schedule: Q01DX009 (ip), vehicle: saline): 100 % of control

SMILES: O=C1CN(C2CC2N2CC(=O)OC(=O)C2)CC(=O)O1 (centres undefined)
- T/C (dose: 100.0 mg/kg/injection, schedule: Q04DX003 (ip), vehicle: saline with Tween-80): 97 % of control
- T/C (dose: 400.0 mg/kg/injection, schedule: Q04DX003 (ip), vehicle: saline with Tween-80): 89 % of control

SMILES: COc1cccc2c1C(=O)c1c(O)c3c(c(O)c1C2=O)C[C@@](O)(/C(C)=N/NC(=O)c1ccccc1)C[C@@H]3OC1CC(N(C)C)C(O)C(C)O1 (some centres undefined)
- T/C (dose: 0.78 mg/kg/injection, schedule: Q01DX009 (ip), vehicle: water): 165 % of control
- T/C (dose: 1.56 mg/kg/injection, schedule: Q01DX009 (ip), vehicle: water): 165 % of control
- T/C (dose: 3.13 mg/kg/injection, schedule: Q01DX009 (ip), vehicle: water): 183 % of control and 192 % of control
- T/C (dose: 12.5 mg/kg/injection, schedule: Q01DX009 (ip), vehicle: water): 103 % of control

SMILES: CCc1ccc(N2C(=O)C(CC(=O)O)SC23C(=O)N(Cc2ccccc2)c2ccccc23)cc1 (centres undefined)
- T/C [1]: 94 % of control
- T/C [2]: 97 % of control

SMILES: CC(C)c1cc(O)c2c(c1O)C1CC3C(C)(C)CCC[C@]23C(=O)O1 (some centres undefined)
- T/C (dose: 4.88 mg/kg/injection, schedule: Q01DX005 (ip), vehicle: Klucel (hydroxypropylcellulose) (HPC)): 95 % of control
- T/C (dose: 9.75 mg/kg/injection, schedule: Q01DX005 (ip), vehicle: Klucel (hydroxypropylcellulose) (HPC)): 100 % of control
- T/C (dose: 19.5 mg/kg/injection, schedule: Q01DX005 (ip), vehicle: Klucel (hydroxypropylcellulose) (HPC)): 100 % of control
- T/C (dose: 39.0 mg/kg/injection, schedule: Q01DX005 (ip), vehicle: Klucel (hydroxypropylcellulose) (HPC)): 96 % of control

SMILES: CC(=O)Nc1cccc(OCc2cccc(N3C(N)=NC(N)=NC3(C)C)c2)c1
- T/C (dose: 1.56 mg/kg/injection, schedule: Q01DX009 (ip), vehicle: distilled water + Tween-80): 99 % of control
- T/C (dose: 3.12 mg/kg/injection, schedule: Q01DX009 (ip), vehicle: distilled water + Tween-80): 99 % of control
- T/C (dose: 6.25 mg/kg/injection, schedule: Q01DX009 (ip), vehicle: distilled water + Tween-80): 105 % of control
- T/C (dose: 6.25 mg/kg/injection, schedule: Q01DX009 (ip), vehicle: saline): 105 % of control
- T/C (dose: 12.5 mg/kg/injection, schedule: Q01DX009 (ip), vehicle: distilled water + Tween-80): 105 % of control
- T/C (dose: 12.5 mg/kg/injection, schedule: Q01DX009 (ip), vehicle: saline): 101 % of control
- T/C (dose: 25.0 mg/kg/injection, schedule: Q01DX009 (ip), vehicle: saline): 117 % of control

SMILES: [CH3][Sb]([CH3])[O][Sb]([CH3])[CH3]
- T/C (dose: 60.0 mg/kg/injection, schedule: Q01DX005 (ip), vehicle: saline): 110 % of control
- T/C (dose: 120.0 mg/kg/injection, schedule: Q01DX005 (ip), vehicle: saline): 111 % of control
- T/C (dose: 240.0 mg/kg/injection, schedule: Q01DX005 (ip), vehicle: saline): 107 % of control

SMILES: O=C1OI(Cl)c2ccccc21
- T/C [1]: 104 % of control
- T/C [2]: 104 % of control

SMILES: CC(C)(C)n1nc(C2CC2)c(Br)c1NC(=O)c1ccc(Cl)cc1
- T/C (dose: 30.0 mg/kg/injection, schedule: Q01DX005 (ip), vehicle: Klucel (hydroxypropylcellulose) (HPC)): 109 % of control
- T/C (dose: 60.0 mg/kg/injection, schedule: Q01DX005 (ip), vehicle: Klucel (hydroxypropylcellulose) (HPC)): 96 % of control
- T/C (dose: 120.0 mg/kg/injection, schedule: Q01DX005 (ip), vehicle: Klucel (hydroxypropylcellulose) (HPC)): 101 % of control
- T/C (dose: 240.0 mg/kg/injection, schedule: Q01DX005 (ip), vehicle: Klucel (hydroxypropylcellulose) (HPC)): 98 % of control
